The term IC50 denotes the concentration needed to halve the response being measured.

Each structure is given as a SMILES string. Like-named read-outs stand apart in the source and are kept apart here. Some results are limits rather than exact numbers.

Results on 40 compounds are retold here after patent US12624034B2, “Non-covalent modifiers of AKT1 and uses thereof” (Terremoto Biosciences, Inc., priority 2023, dated 2026).

One test has as its target T1, AKT1 WT (Homo sapiens, UniProt P31749).
T1 construct: expressed in transfected cells; host or cells: HEK293
The test is described as follows: Live cell AKT1 WT target engagement by NanoBRET competitive probe displacement in HEK293 cells. The test is classed as binding. To be noted: 2 h at 37° C., read-out: AKT1 WT IC50. On the technique in general: BRET reads energy transfer from a luciferase to a nearby fluorophore.

The target in the next test is T2, AKT2 (Homo sapiens, UniProt P31751).
T2 construct: expressed in transfected cells; host or cells: HEK293
In words: Live cell AKT2 target engagement by NanoBRET competitive probe displacement in HEK293 cells. The class given is binding. The note with it: 2 h at 37° C., read-out: AKT2 IC50.

[1] abbreviates: NanoBRET competitive probe displacement, live HEK293 cells.
The mark [2] stands for this setting: NanoBRET live cell target engagement, HEK293 cells.

T2 sequence (P31751 whole entry): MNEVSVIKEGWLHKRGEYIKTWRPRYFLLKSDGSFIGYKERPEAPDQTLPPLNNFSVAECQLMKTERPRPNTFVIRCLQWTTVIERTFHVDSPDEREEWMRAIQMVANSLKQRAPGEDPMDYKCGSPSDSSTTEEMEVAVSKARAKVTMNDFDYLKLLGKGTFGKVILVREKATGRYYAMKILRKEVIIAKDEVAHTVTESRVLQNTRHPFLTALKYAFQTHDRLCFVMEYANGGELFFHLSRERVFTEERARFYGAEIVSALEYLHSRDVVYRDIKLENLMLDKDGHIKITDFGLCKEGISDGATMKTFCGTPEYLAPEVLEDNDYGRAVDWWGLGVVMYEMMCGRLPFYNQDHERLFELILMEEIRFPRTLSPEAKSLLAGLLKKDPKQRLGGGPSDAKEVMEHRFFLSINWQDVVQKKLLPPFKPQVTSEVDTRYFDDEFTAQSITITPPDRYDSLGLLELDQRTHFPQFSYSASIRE
T1 sequence (P31749 whole entry): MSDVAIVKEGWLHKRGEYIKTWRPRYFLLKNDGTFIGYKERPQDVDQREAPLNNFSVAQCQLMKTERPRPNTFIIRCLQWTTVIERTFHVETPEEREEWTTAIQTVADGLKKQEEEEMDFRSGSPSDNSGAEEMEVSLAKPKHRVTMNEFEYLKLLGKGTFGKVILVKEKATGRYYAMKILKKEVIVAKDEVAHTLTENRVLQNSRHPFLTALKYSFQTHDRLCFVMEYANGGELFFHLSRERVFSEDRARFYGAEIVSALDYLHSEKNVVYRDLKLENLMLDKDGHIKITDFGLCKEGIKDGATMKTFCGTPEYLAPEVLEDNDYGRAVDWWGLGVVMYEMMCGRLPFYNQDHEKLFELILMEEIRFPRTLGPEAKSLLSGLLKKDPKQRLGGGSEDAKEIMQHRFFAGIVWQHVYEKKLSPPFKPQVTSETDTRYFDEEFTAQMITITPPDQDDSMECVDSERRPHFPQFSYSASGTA

`Nc1ncccc1-c1nc2ccc(-n3cccn3)nc2n1-c1ccc2c(c1)CC(F)[C@@H]2NC1CCc2cnccc21` (some centres unmarked) [Compound 481]: the values for the IC50 at AKT1 WT (setting [1]) and at AKT2 (setting [1]) were 0.0139 µM and 0.278 µM, respectively.

As to `Nc1ncccc1-c1nc2ccc(-n3cccn3)nc2n1-c1ccc2c(c1)CC[C@@H]2NCc1cccnc1` [Compound 141], the values for the IC50 on AKT1 WT (setting [2]) and at AKT2 (setting [2]) were 0.0526 µM and 0.734 µM, respectively.

`Cn1ccc(C#Cc2cc(C(=O)N[C@H]3CCc4cc(-n5c(-c6cccnc6N)nc6ccc(-n7cccn7)nc65)ccc43)ccn2)n1` [Compound 182]: the figures for the IC50 on AKT1 WT (setting [2]) and at AKT2 (setting [2]) were 0.0115 µM and 0.219 µM, respectively.

For the compound `COc1ncn(-c2ccc3nc(-c4cccnc4N)n(-c4ccc5c(c4)CC[C@@H]5NC(=O)c4ccc(C)nc4)c3n2)n1` [Compound 456, (S)—N-(5-(2-(2-aminopyridin-3-yl)-5-(3-methoxy-1H-1,2,4-triazol-1-yl)-3H-imidazo[4,5-b]pyridin-3-yl)-2,3-dihydro-1H-inden-1-yl)-6-methylnicotinamide], the IC50 on AKT1 WT (setting [1]) was determined as 0.0523 µM; at AKT2 (setting [1]), 0.715 µM.

Take `CN(CCC1CC1)[C@H]1CCc2cc(-n3c(-c4cccnc4N)nc4ccc(-n5cccn5)nc43)ccc21` [Compound 458]: the IC50 came to 0.0934 µM at AKT1 WT (setting [1]) and 2.8 µM at AKT2 (setting [1]).

Regarding `Cc1cnc2ccc(C(=O)N[C@H]3CCc4cc(-n5c(-c6cccnc6N)nc6ccc(-n7nccn7)nc65)ccc43)cn12` [Compound 398], the IC50 on AKT1 WT (setting [1]) was 0.0178 µM; at AKT2 (setting [1]), 1.09 µM.

Turning to `Nc1ncccc1-c1nc2ccc(-n3cccn3)nc2n1-c1ccc2c(c1)CC[C@@H]2NC(=O)[C@@H]1CCO1` [Compound 373], the IC50 on AKT1 WT (setting [2]) amounted to 0.704 µM; on AKT2 (setting [2]), 9.91 µM.

For `Nc1ncccc1-c1nc2ccc(-n3ccc(Oc4ccccn4)n3)nc2n1-c1ccc2c(c1)CC[C@@H]2NC1CCN(C(=O)C2CC2)CC1` [Compound 574], the IC50 turned out to be 0.0524 µM at AKT1 WT (setting [1]) and 2.42 µM at AKT2 (setting [1]).

Regarding `Nc1ncccc1-c1nc2ccc(-n3cccn3)nc2n1-c1ccc2c(c1)CC[C@H]2n1ccnn1` [Compound 227], the IC50 was greater than 1 µM on AKT1 WT (setting [2]) and greater than 10 µM on AKT2 (setting [2]).

Consider `Cc1ccc(C(=O)N[C@H]2CCc3cc(-n4c(-c5cccnc5N)nc5ccc(C#Cc6ncco6)nc54)ccc32)cn1` [Compound 341], for which the IC50 on AKT1 WT (setting [2]) stood at 0.391 µM; on AKT2 (setting [2]), 2.85 µM.

Take `Nc1ncccc1-c1nc2ccc(-n3cccn3)nc2n1-c1ccc2c(c1)CC[C@@H]2NC1CCc2nc(C(F)F)sc21` (some centres unmarked) [Compound 601]: the IC50 turned out to be 0.102 µM on AKT1 WT (setting [1]) and 2.5 µM on AKT2 (setting [1]).

In the case of `Nc1ncccc1-c1nc2ccc(-n3cccn3)nc2n1-c1ccc2c(c1)CC[C@@H]2NC(=O)c1ccc(F)cc1` [Compound 310], the IC50 at AKT1 WT (setting [2]) was 0.0221 µM; on AKT2 (setting [2]) it was 0.351 µM.

Take `CC(C)(O)c1ccn(-c2ccc3nc(-c4cccnc4N)n(-c4ccc5c(c4)CC[C@@H]5NC4CCN(C(=O)C5CC5)CC4)c3n2)n1` [Compound 569]: the IC50 at AKT1 WT (setting [1]) is 0.0774 µM; at AKT2 (setting [1]) it was 0.808 µM.

Regarding `Cc1csc(-c2ccc3nc(-c4cccnc4N)n(-c4ccc5c(c4)CC[C@@H]5NC(=O)c4ccn(C)n4)c3n2)n1` [Compound 374, (S)—N-(5-(2-(2-aminopyridin-3-yl)-5-(4-methylthiazol-2-yl)-3H-imidazo[4,5-b]pyridin-3-yl)-2,3-dihydro-1H-inden-1-yl)-1-methyl-1H-pyrazole-3-carboxamide], the IC50 on AKT1 WT (setting [2]) amounted to 0.0278 µM; at AKT2 (setting [2]), 0.389 µM.

For `Cc1nccnc1C(=O)N[C@H]1CCc2cc(-n3c(-c4cccnc4N)nc4ccc(-n5cccn5)nc43)ccc21` [Compound 118], the IC50 is 0.0662 µM at AKT1 WT (setting [2]) and 3.23 µM on AKT2 (setting [2]).

For the compound `Cc1nccnc1C(=O)N[C@H]1CCc2cc(-n3c(-c4cccnc4N)nc4ccc(-c5cccc(N6CCN(C)CC6)c5)nc43)ccc21` [Compound 269], the IC50 on AKT1 WT (setting [2]) came out at 0.00321 µM; on AKT2 (setting [2]) it was 0.00939 µM.

As for `Cc1ccc(CN(C)[C@H]2CCc3cc(-n4c(-c5cccnc5N)nc5ccc(-n6cccn6)nc54)ccc32)cn1` [Compound 168], the results for the half-maximal inhibitory concentration (IC50) at AKT1 WT (setting [2]) and at AKT2 (setting [2]) were 0.0411 µM and 1.01 µM, respectively.

Consider `Nc1ncccc1-c1nc2ccc(-n3cccn3)nc2n1-c1ccc2c(c1)CC[C@@H]2NC(=O)c1cc(F)cc(F)c1` [Compound 331], for which the IC50 stood at 0.0191 µM on AKT1 WT (setting [2]) and 0.0413 µM on AKT2 (setting [2]).

With `Nc1ncccc1-c1nc2ccc(-n3cccn3)nc2n1-c1ccc2c(c1)CC[C@@H]2NC(=O)c1cccnc1C(F)(F)F` [Compound 110], the concentration for half-maximal inhibition (IC50) on AKT1 WT (setting [2]) was 0.0462 µM; at AKT2 (setting [2]), 0.963 µM.

For `COCCOc1ccn(-c2ccc3nc(-c4cccnc4N)n(-c4ccc5c(c4)CC[C@@H]5NC4CCN(c5ccn(C)n5)CC4)c3n2)n1` [Compound 551], the half-maximal inhibitory concentration (IC50) turned out to be 0.0131 µM on AKT1 WT (setting [1]) and 0.296 µM on AKT2 (setting [1]).

Regarding `Cc1nnc(C)n1[C@H]1CCc2cc(-n3c(-c4cccnc4N)nc4ccc(-n5cccn5)nc43)ccc21` [Compound 272, (S)-3-(3-(1-(3,5-dimethyl-4H-1,2,4-triazol-4-yl)-2,3-dihydro-1H-inden-5-yl)-5-(1H-pyrazol-1-yl)-3H-imidazo[4,5-b]pyridin-2-yl)pyridin-2-amine], the IC50 at AKT1 WT (setting [2]) was found to be 0.0386 µM; on AKT2 (setting [2]) it was 0.604 µM.

Take `Nc1ncccc1-c1nc2ccc(-n3cccn3)nc2n1-c1ccc2c(c1)CC[C@@H]2NC(=O)c1cccnc1CO` [Compound 152, (S)—N-(5-(2-(2-aminopyridin-3-yl)-5-(1H-pyrazol-1-yl)-3H-imidazo[4,5-b]pyridin-3-yl)-2,3-dihydro-1H-inden-1-yl)-2-(hydroxymethyl)nicotinamide]: the IC50 was found to be 0.0617 µM at AKT1 WT (setting [2]) and 0.984 µM at AKT2 (setting [2]).

With `Cc1nnn([C@H]2CCc3cc(-n4c(-c5cccnc5N)nc5ccc(-n6cccn6)nc54)ccc32)c1C` [Compound 249, (S)-3-(3-(1-(4,5-dimethyl-1H-1,2,3-triazol-1-yl)-2,3-dihydro-1H-inden-5-yl)-5-(1H-pyrazol-1-yl)-3H-imidazo[4,5-b]pyridin-2-yl)pyridin-2-amine], the IC50 stood at 0.0218 µM on AKT1 WT (setting [2]) and 0.368 µM on AKT2 (setting [2]).

Regarding `Cn1ccc(N2CCC(N[C@H]3CCc4cc(-n5c(-c6cccnc6N)nc6ccc(-n7ccc(N8CCC8)n7)nc65)ccc43)CC2)n1` [Compound 596], the figures for the IC50 at AKT1 WT (setting [1]) and on AKT2 (setting [1]) were 0.0129 µM and 0.689 µM, respectively.

Take `Nc1ncccc1-c1nc2ccc(-n3ccc(C4COC4)n3)nc2n1-c1ccc2c(c1)CC[C@@H]2NC1CCN(C(=O)C2CC2)CC1` [Compound 597]: the 50% inhibitory concentration (IC50) on AKT1 WT (setting [1]) worked out at 0.0661 µM; on AKT2 (setting [1]), 3.78 µM.

As to `COc1cc(F)cc(C(=O)N[C@H]2CCc3cc(-n4c(-c5cccnc5N)nc5ccc(-n6cccn6)nc54)ccc32)c1` [Compound 334], the IC50 on AKT1 WT (setting [2]) was determined as 0.00816 µM; at AKT2 (setting [2]), 0.0214 µM.

Consider `Cc1cc(C(=O)N[C@H]2CCc3cc(-n4c(-c5cccnc5N)nc5ccc(-n6cccn6)nc54)ccc32)sn1` [Compound 375], for which the IC50 on AKT1 WT (setting [2]) is 0.00752 µM; at AKT2 (setting [2]), 0.0689 µM.

Turning to `Nc1ncccc1-c1nc2ccc(-n3cccn3)nc2n1-c1ccc2c(c1)CC[C@@H]2NC1CCCc2ccncc21` (some centres unmarked) [Compound 502], the IC50 was determined as 0.134 µM at AKT1 WT (setting [1]) and 2.09 µM on AKT2 (setting [1]).

`Nc1ncccc1-c1nc2ccc(-n3cccn3)nc2n1-c1ccc2c(c1)CC[C@@H]2N1CCCC1` [Compound 330]: the IC50 at AKT1 WT (setting [2]) amounted to 0.0551 µM; at AKT2 (setting [2]), 1.19 µM.

As for `Nc1ncccc1-c1nc2ccc(-n3ccc(OC4CCOCC4)n3)nc2n1-c1ccc2c(c1)CC[C@@H]2NC1CCN(C(=O)C2CC2)CC1` [Compound 517], the IC50 amounted to 0.0316 µM on AKT1 WT (setting [1]) and 0.973 µM on AKT2 (setting [1]).

As for `Nc1ncccc1-c1nc2ccc(-n3cccn3)nc2n1-c1ccc2c(c1)CC[C@@H]2NC(=O)c1ccnc(OC2COC2)c1` [Compound 164, (S)—N-(5-(2-(2-aminopyridin-3-yl)-5-(1H-pyrazol-1-yl)-3H-imidazo[4,5-b]pyridin-3-yl)-2,3-dihydro-1H-inden-1-yl)-2-(oxetan-3-yloxy)isonicotinamide], the results for the IC50 on AKT1 WT (setting [2]) and at AKT2 (setting [2]) were 0.0153 µM and 0.18 µM, respectively.

In the case of `Cc1ccc(C(=O)N[C@H]2CCc3cc(-n4c(-c5cccnc5N)nc5ccc(-n6ncnc6C6CC6)nc54)ccc32)cn1` [Compound 420], the IC50 turned out to be 0.336 µM on AKT1 WT (setting [1]) and 3.1 µM on AKT2 (setting [1]).

As for `Nc1ncccc1-c1nc2ccc(-n3cccn3)nc2n1-c1ccc2c(c1)CC[C@@H]2NC(=O)c1ccc(CF)nc1` [Compound 98], the figures for the half-inhibitory concentration (IC50) at AKT1 WT (setting [2]) and on AKT2 (setting [2]) were 0.0132 µM and 0.0526 µM, respectively.

`CN(C)Cc1ncccc1C(=O)N[C@H]1CCc2cc(-n3c(-c4cccnc4N)nc4ccc(-n5cccn5)nc43)ccc21` [Compound 104]: the 50% inhibitory concentration (IC50) on AKT1 WT (setting [2]) is 0.317 µM; on AKT2 (setting [2]) it was greater than 10 µM.

As to `Nc1ncccc1-c1nc2ccc(-n3cccn3)nc2n1-c1ccc2c(c1)CC[C@@H]2NC(=O)c1ccc(OC(F)(F)F)nc1` [Compound 68], the IC50 on AKT1 WT (setting [2]) came to 0.00529 µM; at AKT2 (setting [2]), 0.0152 µM.

Regarding `Nc1ncccc1-c1nc2ccc(-n3cccn3)nc2n1-c1ccc2c(c1)CC[C@@H]2NC(=O)c1cnc2[nH]ncc2c1` [Compound 192], the results for the IC50 at AKT1 WT (setting [2]) and on AKT2 (setting [2]) were 0.00954 µM and 0.0864 µM, respectively.

Turning to `Nc1ncccc1-c1nc2ccc(-n3cccn3)nc2n1-c1ccc2c(c1)CC[C@@H]2NC(=O)c1cc2ccccn2n1` [Compound 175], the IC50 was determined as 0.013 µM on AKT1 WT (setting [2]) and 0.0797 µM at AKT2 (setting [2]).

With `Nc1ncccc1-c1nc2ccc(-n3cccn3)nc2n1-c1ccc2c(c1)CC[C@@H]2n1cc(Cc2ccccc2)nn1` [Compound 156], the IC50 at AKT1 WT (setting [2]) was 0.0393 µM; on AKT2 (setting [2]) it was 0.722 µM.

With `Cc1ncccc1S(=O)(=O)N[C@H]1CCc2cc(-n3c(-c4cccnc4N)nc4ccc(-n5cccn5)nc43)ccc21` [Compound 139], the IC50 on AKT1 WT (setting [2]) was found to be 0.0896 µM; on AKT2 (setting [2]), 5.85 µM.

As to `Nc1ncccc1-c1nc2ccc(-n3cccn3)nc2n1-c1ccc2c(c1)CC[C@@H]2NC(=O)c1cnc2nccn2c1` [Compound 160], the IC50 on AKT1 WT (setting [2]) came out at 0.0535 µM; at AKT2 (setting [2]) it was 0.56 µM.
